Patent US20250145640A1, “2,2-DIFLUORO-5H-[1,3]DIOXOLO[4,5-F]ISOINDOL-7-ONE DERIVATIVES AS PESTICIDES” (SYNGENTA CROP PROTECTION AG, priority 2021, published 2025)

How the values were obtained:
Type in all cases: in vivo
[1] = test system: Diabrotica Balteata (Corn Root Worm); test: Example B2: Activity against Diabrotica balteata, sprayed maize sprouts on agar; conditions: 96 h, application rate 200 ppm, L2 larvae, assessed 4 days after infestation, read-out: effect in at least one of the two categories (mortality or growth inhibition)
Experimental: Example B2: Activity Against Diabrotica Balteata (Corn Root Worm)
Maize sprouts placed onto an agar layer in 24-well microtiter plates were treated with aqueous test solutions prepared from 10′000 ppm DMSO stock solutions by spraying. After drying, the plates were infested with L2 larvae (6 to 10 per well). The samples were assessed for mortality and growth inhibition in comparison to untreated samples 4 days after infestation.

[2] = test system: Euschistus heros (Neotropical Brown Stink Bug); test: Example B3: Activity against Euschistus heros, sprayed soybean leaves on agar; conditions: 120 h, application rate 200 ppm, N2 nymphs, assessed 5 days after infestation, read-out: effect in at least one of the two categories (mortality or growth inhibition)
Experimental: Example B3: Activity Against Euschistus heros (Neotropical Brown Stink Bug)
Soybean leaves on agar in 24-well microtiter plates were sprayed with aqueous test solutions prepared from 10′000 ppm DMSO stock solutions. After drying the leaves were infested with N2 nymphs. The samples were assessed for mortality and growth inhibition in comparison to untreated samples 5 days after infestation.

[3] = test system: Plutella xylostella (Diamond Back Moth); test: Example B5: Activity against Plutella xylostella, artificial diet in 24-well microtiter plates; conditions: 192 h, application rate 200 ppm, eggs, assessed 8 days after infestation, read-out: effect in at least one of the two categories (mortality or growth inhibition)
Experimental: Example B5: Activity Against Plutella xylostella (Diamond Back Moth)
24-well microtiter plates with artificial diet were treated with aqueous test solutions prepared from 10′000 ppm DMSO stock solutions by pipetting. After drying, Plutella eggs were pipetted through a plastic stencil onto a gel blotting paper and the plate was closed with it. The samples were assessed for mortality and growth inhibition in comparison to untreated samples 8 days after infestation.

[4] = test system: Chilo suppressalis (Striped Rice Stemborer); test: Example B1: Activity against Chilo suppressalis, artificial diet in 24-well microtiter plates; conditions: 144 h, application rate 200 ppm, L2 larvae, assessed 6 days after infestation, read-out: control (at least one of mortality, anti-feedant effect, growth inhibition)
Experimental: Example B1: Activity Against Chilo suppressalis (Striped Rice Stemborer)
24-well microtiter plates with artificial diet were treated with aqueous test solutions prepared from 10′000 ppm DMSO stock solutions by pipetting. After drying, the plates were infested with L2 larvae (6-8 per well). The samples were assessed for mortality, anti-feeding effect, and growth inhibition in comparison to untreated samples 6 days after infestation. Control of Chilo suppressalis by a test sample is given when at least one of the categories mortality, anti-feedant effect, and growth inhibition is higher than the untreated sample.

[5] = test system: Myzus persicae (Green peach aphid); test: Example B4: Activity against Myzus persicae, feeding/contact activity on sunflower leaf discs; conditions: foliar, 144 h, application rate 200 ppm, aphid population of mixed ages, assessed 6 days after infestation
Experimental: Example B4: Activity against Myzus persicae (Green peach aphid) Feeding/Contact activity Sunflower leaf discs were placed onto agar in a 24-well microtiter plate and sprayed with aqueous test solutions prepared from 10′000 ppm DMSO stock solutions. After drying, the leaf discs were infested with an aphid population of mixed ages. The samples were assessed for mortality 6 days after infestation.

[6] = test system: Spodoptera littoralis (Egyptian Cotton Leaf Worm); test: Example B6: Activity against Spodoptera littoralis, sprayed cotton leaf discs on agar; conditions: foliar, 72 h, application rate 200 ppm, L1 larvae, assessed 3 days after infestation, read-out: control (at least one of mortality, anti-feedant effect, growth inhibition)
Experimental: Example B6: Activity Against Spodoptera littoralis (Egyptian Cotton Leaf Worm)
Cotton leaf discs were placed onto agar in 24-well microtiter plates and sprayed with aqueous test solutions prepared from 10′000 ppm DMSO stock solutions. After drying the leaf discs were infested with five L1 larvae. The samples were assessed for mortality, anti-feeding effect, and growth inhibition in comparison to untreated samples 3 days after infestation. Control of Spodoptera littoralis by a test sample is given when at least one of the categories mortality, anti-feedant effect, and growth inhibition is higher than the untreated sample.

CCS(=O)(=O)c1c(N2Cc3cc4c(cc3C2=O)OC(F)(F)O4)nn2cc(C3CC3)ccc12 [P4, 6-(6-cyclopropyl-3-ethylsulfonyl-pyrazolo[1,5-a]pyridin-2-yl)-2,2-difluoro-5H-[1,3]dioxolo[4,5-f]isoindol-7-one]
≥ 80%: percent effect (mortality or growth inhibition) at 200 ppm [1] | percent effect (mortality or growth inhibition) at 200 ppm [2] | percent effect (mortality or growth inhibition) at 200 ppm [3] | control (mortality, anti-feedant effect or growth inhibition) at 200 ppm [4] | mortality at 200 ppm [5] | percent control (mortality, anti-feedant effect or growth inhibition) at 200 ppm [6]
